21 molecules from patent US6737409B2, “Dolastatin 10 derivatives” (Hoffmann-La Roche Inc., priority 2001, dated 2004) can be followed below.

Each structure is given as a SMILES string. Where two headings read alike, the source gives them in different places.

The subject of the experiment is HCT 116. Put plainly: Antiproliferative activity assay (WST-8). In kind it is cell-based. As for the experimental part:
Antiproliferative activity assay was carried out as follows. A single suspension of tumor cells was inoculated to the serially diluted 96-well microtestplate. Then the testplate was incubated in the 5% CO2 ambience at 37° C. for 4 days (2-3×10^3 cells/well). The degree of cell growth in a monolayer was measured by using WST-8 (Dojindo, Japan). IC50 values of drugs against tumor cells were calculated as the concentration of drug yielding 50% OD of the control growth.
In general terms: Formazan colour is commonly taken as a measure of viable cells.

The mark [1] stands for this setting: Homo sapiens, HCT-116, 96 h, incubated 4 days, WST-8, concentration of drug yielding 50% OD of the control growth, read-out: HCT 116 IC50.
[2] abbreviates: incubated 4 days, WST-8, concentration of drug yielding 50% OD of the control growth, read-out: HCT 116 IC50.

The term IC50 denotes the concentration needed to halve the response being measured. For `CCC(C)C(C(CC(=O)N1CCCC1C(CC(=O)NCCc1ccccc1)SCCOC(C)=O)OC)N(C)C(=O)C(NC(=O)C(C(C)C)N(C)C)C(C)C` (stereo not drawn) [Acetic acid 2-{1-[1-(4-{[2-(2-dimethylamino-3-methyl-butyrylamino)-3-methyl-butyryl]-methyl-amino}-3-methoxy-5-methyl-heptanoyl)-pyrrolidin-2-yl]-2-phenethylcarbamoyl-ethylsulfanyl}-ethyl ester], the half-inhibitory concentration (IC50) under setting [1] worked out at 0.19 nM. Still for that read-out and setting: the same measure for `CCNC(=O)OCCSC(CC(=O)NCCc1ccccc1)C1CCCN1C(=O)CC(OC)C(C(C)CC)N(C)C(=O)C(NC(=O)C(C(C)C)N(C)C)C(C)C` (stereo not drawn) [Ethyl-carbamic acid 2-{1-[1-(4-{[2-(2-dimethylamino-3-methyl-butyrylamino)-3-methyl-butyryl]-methyl-amino}-3-methoxy-5-methyl-heptanoyl)-pyrrolidin-2-yl]-2-phenethylcarbamoyl-ethylsulfanyl}-ethyl ester]: 0.97 nM. For the molecule `CCNC(=O)Oc1cccc(CCNC(=O)C(C)C(SC)C2CCCN2C(=O)CC(OC)C(C(C)CC)N(C)C(=O)C(NC(=O)C(C(C)C)N(C)C)C(C)C)c1` (stereo not drawn) [Ethyl-carbamic acid 3-(2-{3-[1-(4-{[2-(2-dimethylamino-3-methyl-butyrylamino)-3-methyl-butyryl]-methyl-amino}-3-methoxy-5-methyl-heptanoyl)-pyrrolidin-2-yl]-2-methyl-3-methylsulfanyl-propionylamino}-ethyl)-phenyl ester], the IC50 (Homo sapiens, HCT-116, 96 h, read-out: HCT 116 IC50 (nM)) was 0.57 nM. Take `CCC(C)C(C(CC(=O)N1CCCC1C(CC(=O)NCCc1cccc(O)c1)SCC(=O)N(C)C)OC)N(C)C(=O)C(NC(=O)C(C(C)C)N(C)C)C(C)C` (stereo not drawn) [N-(1-{[1-sec-Butyl-4-(2-{1-dimethylcarbamoylmethylsulfanyl-2-[2-(3-hydroxy-phenyl)-ethylcarbamoyl]-ethyl}-pyrrolidin-1-yl)-2-methoxy-4-oxo-butyl]-methyl-carbamoyl}-2-methyl-propyl)-2-dimethylamino-3-methyl-butyramide]: the IC50 under setting [1] was 1.8 nM.

Turning to `CCC(C)C(C(CC(=O)N1CCCC1C(CC(=O)NCCc1ccccc1O)SC)OC)N(C)C(=O)C(NC(=O)C(C(C)C)N(C)C)C(C)C` (stereo not drawn) [N-(1-{[1-sec-Butyl-4-(2-{2-[2-(2-hydroxy-phenyl)-ethylcarbamoyl]-1-methylsulfanyl-ethyl}-pyrrolidin-1-yl)-2-methoxy-4-oxo-butyl]-methyl-carbamoyl}-2-methyl-propyl)-2-dimethylamino-3-methyl-butyramide], under setting [1], the IC50 stood at 0.64 nM. Still for that read-out and setting: the same measure for `CCC(C)C(C(CC(=O)N1CCCC1C(CC(=O)NCCc1ccc(OC)c(OC)c1)SC)OC)N(C)C(=O)C(NC(=O)C(C(C)C)N(C)C)C(C)C` (stereo not drawn) [N-(1-{[1-sec-Butyl-4-(2-{2-[2-(3,4-dimethoxy-phenyl)-ethylcarbamoyl]-1-methylsulfanyl-ethyl}-pyrrolidin-1-yl)-2-methoxy-4-oxo-butyl]-methyl-carbamoyl}-2-methyl-propyl)-2-dimethylamino-3-methyl-butyramide]: 0.91 nM; for `CCC(C)C(C(CC(=O)N1CCCC1C(CC(=O)NCCc1cccc(O)c1)SC)OC)N(C)C(=O)C(NC(=O)C(C(C)C)N(C)C)C(C)C` (stereo not drawn) [N-(1-{[1-sec-Butyl-4-(2-{2-[2-(3-hydroxy-phenyl)-ethylcarbamoyl]-1-methylsulfanyl-ethyl}-pyrrolidin-1-yl)-2-methoxy-4-oxo-butyl]-methyl-carbamoyl}-2-methyl-propyl)-2-dimethylamino-3-methyl-butyramide]: 0.26 nM; for `CCC(C)C(C(CC(=O)N1CCCC1C(CC(=O)NCCc1ccc(O)cc1)SC)OC)N(C)C(=O)C(NC(=O)C(C(C)C)N(C)C)C(C)C` (stereo not drawn) [N-(1-{[1-sec-Butyl-4-(2-{2-[2-(4-hydroxy-phenyl)-ethylcarbamoyl]-1-methylsulfanyl-ethyl}-pyrrolidin-1-yl)-2-methoxy-4-oxo-butyl]-methyl-carbamoyl}-2-methyl-propyl)-2-dimethylamino-3-methyl-butyramide]: 0.6 nM.

In the case of `CCC(C)C(C(CC(=O)N1CCCC1C(SC)C(C)C(=O)NCCc1ccccc1)OC)N(C)C(=O)C(NC(=O)C(C(C)C)N(C)C)C(C)C` (stereo not drawn) [N-[1-({1-sec-Butyl-2-methoxy-4-[2-(1-methylsulfanyl-2-phenethylcarbamoyl-propyl)-pyrrolidin-1-yl]-4-oxo-butyl}-methyl-carbamoyl)-2-methyl-propyl]-2-dimethylamino-3-methyl-butyramide], the IC50 under setting [1] amounted to 0.04 nM. As for `CCCCCSC(CC(=O)NCCc1ccccc1)C1CCCN1C(=O)CC(OC)C(C(C)CC)N(C)C(=O)C(NC(=O)C(C(C)C)N(C)C)C(C)C` (stereo not drawn) [N-[1-({1-sec-Butyl-2-methoxy-4-oxo-4-[2-(1-pentylsulfanyl-2-phenethylcarbamoyl-ethyl)-pyrrolidin-1-yl]-butyl}-methyl-carbamoyl)-2-methyl-propyl]-2-dimethylamino-3-methyl-butyramide], the IC50 under setting [1] was 0.75 nM. The same measure, in the same setting: the same measure for `CCC(C)C(C(CC(=O)N1CCCC1C(CC(=O)NCCc1ccccc1)Sc1ccccc1)OC)N(C)C(=O)C(NC(=O)C(C(C)C)N(C)C)C(C)C` (stereo not drawn) [N-[1-({1-sec-Butyl-2-methoxy-4-oxo-4-[2-(2-phenethylcarbamoyl-1-phenylsulfanyl-ethyl)-pyrrolidin-1-yl]-butyl}-methyl-carbamoyl)-2-methyl-propyl]-2-dimethylamino-3-methyl-butyramide]: 0.33 nM. Regarding `CCC(C)C(C(CC(=O)N1CCCC1[C@@H](CC(=O)NCCc1ccccc1)SC(C)(C)C)OC)N(C)C(=O)C(NC(=O)C(C(C)C)N(C)C)C(C)C` (stereo partly drawn) [N-[1-({1-sec-Butyl-4-[2-(1-(R)-tert-butylsulfanyl-2-phenethylcarbamoyl-ethyl)-pyrrolidin-1-yl]-2-methoxy-4-oxo-butyl}-methyl-carbamoyl)-2-methyl-propyl]-2-dimethylamino-3-methyl-butyramide], the IC50 under setting [1] amounted to 0.04 nM. On the same count and under the same terms, the figure for `CCSC(CC(=O)NCCc1ccccc1)C1CCCN1C(=O)CC(OC)C(C(C)CC)N(C)C(=O)C(NC(=O)C(C(C)C)N(C)C)C(C)C` (stereo not drawn) [N-[1-({1-sec-Butyl-4-[2-(1-ethylsulfanyl-2-phenethylcarbamoyl-ethyl)-pyrrolidin-1-yl]-2-methoxy-4-oxo-butyl}-methyl-carbamoyl)-2-methyl-propyl]-2-dimethylamino-3-methyl-butyramide] is 0.78 nM.

Turning to `CCSC(CC(=O)NCCc1ccccc1)C1CCCN1C(=O)CC(OC)C(C(C)CC)N(C)C(=O)C(NC(=O)C(NC)C(C)C)C(C)C` (stereo not drawn) [N-[1-({1-sec-Butyl-4-[2-(1-ethylsulfanyl-2-phenethylcarbamoyl-ethyl)-pyrrolidin-1-yl]-2-methoxy-4-oxo-butyl}-methyl-carbamoyl)-2-methyl-propyl]-3-methyl-2-methylamino-butyramide], under setting [1], the IC50 turned out to be 0.5 nM. Same read-out and setting: the same measure for `CCC(C)C(C(CC(=O)N1CCCC1C(CC(=O)NCCc1ccccc1)S(C)(=O)=O)OC)N(C)C(=O)C(NC(=O)C(C(C)C)N(C)C)C(C)C` (stereo not drawn) [N-[1-({1-sec-Butyl-4-[2-(1-methanesulfonyl-2-phenethylcarbamoyl-ethyl)-pyrrolidin-1-yl]-2-methoxy-4-oxo-butyl}-methyl-carbamoyl)-2-methyl-propyl]-2-dimethylamino-3-methyl-butyramide]: 0.44 nM. The same measure, in the same setting: the figure for `CCC(C)C(C(CC(=O)N1CCCC1C(CC(=O)NCCc1ccccc1)SC(C)(C)C)OC)N(C)C(=O)C(NC(=O)C(C(C)C)N(C)C)C(C)C` (stereo not drawn) [N-[1-({1-sec-Butyl-4-[2-(1-tert-butylsulfanyl-2-phenethylcarbamoyl-ethyl)-pyrrolidin-1-yl]-2-methoxy-4-oxo-butyl}-methyl-carbamoyl)-2-methyl-propyl]-2-dimethylamino-3-methyl-butyramide] is 0.17 nM; for `C=CCSC(CC(=O)NCCc1ccccc1)C1CCCN1C(=O)CC(OC)C(C(C)CC)N(C)C(=O)C(NC(=O)C(C(C)C)N(C)C)C(C)C` (stereo not drawn) [N-[1-({4-[2-(1-Allylsulfanyl-2-phenethylcarbamoyl-ethyl)-pyrrolidin-1-yl]-1-sec-butyl-2-methoxy-4-oxo-butyl}-methyl-carbamoyl)-2-methyl-propyl]-2-dimethylamino-3-methyl-butyramide] it is 0.55 nM.

Consider `CCC(C)C(C(CC(=O)N1CCCC1C(CC(=O)NCCc1ccccc1)SCc1ccccc1)OC)N(C)C(=O)C(NC(=O)C(C(C)C)N(C)C)C(C)C` (stereo not drawn) [N-[1-({4-[2-(1-Benzylsulfanyl-2-phenethylcarbamoyl-ethyl)-pyrrolidin-1-yl]-1-sec-butyl-2-methoxy-4-oxo-butyl}-methyl-carbamoyl)-2-methyl-propyl]-2-dimethylamino-3-methyl-butyramide], for which, under setting [1], the 50% inhibitory concentration (IC50) was found to be 0.52 nM. As for `CCC(C)C(C(CC(=O)N1CCCC1C(SC)C(C)C(=O)NCCc1ccccc1)OC)N(C)C(=O)C(NC(=O)C(NC)C(C)C)C(C)C` (stereo not drawn) [N-[-({1-sec-Butyl-2-methoxy-4-[2-(1-methylsulfanyl-2-phenethylcarbamoyl-propyl)-pyrrolidin-1-yl]-4-oxo-butyl}-methyl-carbamoyl)-2-methyl-propyl]-2-methylamino-3 methyl-butyramide], the IC50 under setting [2] came out at 1 nM.

Turning to `CCC(C)C(C(CC(=O)N1CCCC1C(CC(=O)NCCc1ccccc1)Sc1ccccc1)OC)N(C)C(=O)C(NC(=O)C(NC)C(C)C)C(C)C` (stereo not drawn) [N-[-({1-sec-Butyl-2-methoxy-4-oxo-4-[2-(2-phenethylcarbamoyl-1-phenylsulfanyl-ethyl)-pyrrolidin-1-yl]-butyl}-methyl-carbamoyl)-2-methyl-propyl]-3-methyl-2-methylamino-butyramide], under setting [2], the IC50 is 0.87 nM. Turning to `CCC(C)C(C(CC(=O)N1CCCC1C(CC(=O)NCCc1ccccn1)SC)OC)N(C)C(=O)C(NC(=O)C(C(C)C)N(C)C)C(C)C` (stereo not drawn) [N-{1-[(1-sec-Butyl-2-methoxy-4-{2-[1-methylsulfanyl-2-(2-pyridin-2-yl-ethylcarbamoyl)-ethyl]-pyrrolidin-1-yl}-4-oxo-butyl)-methyl-carbamoyl]-2-methyl-propyl}-2-dimethylamino-3-methyl-butyramide], the IC50 under setting [1] turned out to be 0.9 nM.
